Measured values: article PMC11574108, “4-Furanylvinylquinoline derivative as a new scaffold for the design of oxidative stress initiator and glucose transporter inhibitor drugs” (Scientific Reports, 2024)

Experiments:
[1] = system: HCT 116 p53+/+; assay: Monolayer antiproliferative MTS assay; type: cell-based, human; details: 2D monolayer; for IC50: MTS, 72-h incubation
Source text: (§1) The human colon carcinoma cell line HCT 116 with wild-type p53 (p53^+/+) and the human glioblastoma cell line U-251 were obtained from ATCC, while the HCT 116 with a p53 deletion (p53^−/−) was kindly provided by Prof. M. Rusin from the Maria Sklodowska-Curie Memorial Cancer Center and Institute of Oncology in Gliwice, Poland. The human chronic myelogenous leukaemia cell line K562 and the normal human cell dermal fibroblast cell line NHDF were purchased from Sigma-Aldrich and PromoCell, respectively. Both the HCT 116 and U-251 cell lines were cultured in Dulbecco’s modified Eagle’s medium (DMEM) supplemented with 10% inactivated foetal bovine serum (FBS). The DMEM for the NHDF contained 15% non-inactivated FBS. K562 cells were cultured in RPMI medium completed by 10% inactivated FBS. Additionally, the media were supplemented with antibiotics (streptomycin and penicillin – 1% v/v; Sigma-Aldrich). The cell culture was conducted in 75 cm^2 flasks (Nunc) under standard conditions (37 °C, 5% CO2 humidified atmosphere). Furthermore, the cell lines were frequently tested for mycoplasma using the qRT-PCR technique with specific Mycoplasma primers to confirm the lack of contamination.
(§2) The cells were seeded in 96-well plates (Nunc) with 5,000 or 4,000 cells per well for the cancer cells and NHDF, respectively, and incubated under standard conditions at 37 °C overnight. The culture media were then changed for freshly prepared solutions of the tested compounds in various concentrations. After 72-h incubation the antiproliferative assay was carried out as follows: the solutions of the compounds were changed in each well to 100 µL DMEM without phenol red and 20 µL of CellTiter 96 AQueous One Solution-MTS (Promega). The plates were incubated for 1 h at 37 °C, and the absorbance was then measured at 490 nm using a multi-plate reader (Synergy 4, BioTek). The experiment for each sample was repeated at least three times.
(§3) Additionally, the compounds were also tested for their cytotoxicity against normal cells – human dermal fibroblasts (NHDF).

[2] = system: HCT 116 p53-/-; assay: Monolayer antiproliferative MTS assay; type: cell-based, human; details: 2D monolayer; for IC50: MTS, 72-h incubation
Source text: as §1, §2, §3

[3] = system: NHDF; assay: Monolayer MTS cytotoxicity against normal cells; type: cell-based; details: NHDF, normal human dermal fibroblasts, 72-h incubation
Source text: as §1, §2, §3

[4] = system: tested cancer lines; assay: Antiproliferative MTS assay, summary over the panel; type: cell-based; details: Homo sapiens; against most of the tested cancer lines
Procedure: as §2, with “times. The results are presented as the half-maximal inhibitory concentration (IC50) values, which were estimated in comparison to untreated cells (control) and calculated using GraphPad Prism v.8.0 (USA).” for “times.”
However, the antiproliferative activity of derivative 13 with furan a ring was surprising. […] For this purpose, we selected two pancreatic cancer cell lines: AsPC-1, which is characterised by a deletion of the p53 protein[20] and PANC-1, which carries an R273H mutation. […] In light of the above-mentioned facts, we also determined the cytotoxicity of the GLUT inhibitor BAY-876, which is based on a quinoline scaffold. […]

[5] = system: GLUT-1; assay: qRT-PCR, GLUT-1 mRNA expression; type: cell-based, human; details: HCT 116 p53-/-, 24 and 48 h
Procedure: The cells were seeded in 35 mm Petri dishes at a density of 500,000 cells and incubated at 37 °C for 24 h. The total RNA was isolated after incubation with solutions of 13 (0.5 µM and 1.0 µM) for 24 h and 48 h, respectively. The isolation from the samples was carried out according to a TRIzol™ Reagent protocol (Thermo Fisher Scientific). Synthesis of cDNA was performed with 2 µg of total RNA using a GoScript™ Reverse Transcriptase kit (Promega) with Oligo(dT)23 Primers. Real-Time PCR was carried out using a CFX96 Touch™ Real-Time PCR Detection System (Bio-Rad) in 10 µL reaction volume. Each sample contained SsoAdvanced™ Universal SYBR Green Supermix (Bio Rad), a specific primer pair mix (0.5 µM each), and 1 µL of cDNA. […] The obtained data were analysed based on a comparison of the expression of the target genes and normalized to a reference gene (GAPDH) using the Livak-Schmittgen (2^−ΔΔCT) method. […]
To verify the effect of derivative 13 on glucose transporters at the mRNA level, the expression of the genes encoding the best-characterised glucose transporters in cells was quantified in real-time. In addition to GLUT-1, the effect of the tested derivative on changes in the expression of GLUT-3 and GLUT-4 was also evaluated (Fig. 8). […]

IC50 [1]: 69 ± 9 nM | IC50 ([1]; Homo sapiens, HCT-116, 72 h): < 100 nM | IC50 [2]: 94 ± 10 nM | IC50 ([2]; Homo sapiens, HCT-116, 72 h): < 100 nM | IC50 [4]: < 100 nM
Compound: O=[N+]([O-])c1ccc(/C=C/c2ccnc3ccccc23)o1 [Compound 13]
SI (selectivity index) HCT 116 p53+/+ ([1]; relative to NHDF): 9.41 | SI (selectivity index) HCT 116 p53-/- ([2]; relative to NHDF): 6.90 | IC50 [3]: 649 ± 60 nM | GLUT-1 mRNA level vs control [5]: significant decrease
